Tested on: Koi (Cyprinus carpio haematopterus)
Assay: Koi exposure toxicity test: liver homogenate antioxidative enzyme activity (SOD, CAT, GPx)
Type: in vivo
Settings: experimental group 1 vs blank group
Procedure: Still further, four groups of identical experimental pools are established in S2. Each group of experimental pools is provided with 3 parallel groups. The size of each experimental pool is unified to 30 L. The water temperature of the experimental pool is 18° C. to 22° C. Each experimental pool is provided with an aerator. The first group of the experimental pools is the waste water control group, the second group is the waste water group, the third group is the tap water control group, and the fourth group is the tap water blank group. The four groups of experimental pools have same conditions except the addition of different water quality. 25 L of raw waste water, experimental waste water, control tap water, and blank tap water are sequentially added to the experimental pool of the waste water control group, the waste water experimental group, the tap water control group, and the […].
Still further, 20 selected Koi are put into each experimental pool in S3 for exposure to poison. The Koi used in the test are those domesticated with tap water and not poisoned by the contaminants. The duration of exposure is 96 h-110 h. During the period of exposure, half water is changed every day with water of same quality to maintain the water quality in a stable condition.
Further, the method in S4 is specifically: the Koi after exposure to poison in each group is dissected and liver is extracted, chopped, and formulated into a homogenate with the liver tissue and physiological saline according to weight (g): volume (mL)=1:9 and the activity of antioxidative enzymes in the homogenate is determined.
Still further, the antioxidative enzyme determined in S4 comprises superoxide dismutase, catalase, and glutathione peroxidase.
Still further, the biological indicators such as the determined enzyme activity described in S4 are determined using a kit, and 5 parallel group assays are set for each sample group.
S1: the waste water to be determined was collected (prepared), […]. […]

OO [H2O2]
produces oxidative stress: oxidative stress on the koi (SOD higher, GPx lower than blank group, not significant) (Example 1, oxidant in UV/H2O2) | oxidative stress on the Koi (SOD higher, GPx lower than blank group, not significant) (Example 3, oxidant in the ozone combined oxidation process) | oxidative stress on the Koi (SOD higher, GPx lower than blank group, not significant) (Example 4, oxidant in the wet oxidation process)
